Data published in US11116735B2, “Use of substituted benzylideneguanidine derivatives as synergists for polymyxin antibiotics” (GUANGZHOU INSIGHTER BIOTECHNOLOGY CO., LTD., priority 2015, dated 2021).
Where “and” joins values, the source holds several entries; their conditions need not be identical. Identical values can stand only once.

What was measured:
E. coli 2S-19 = assay: MIC by doubling dilution, colistin sulfate-susceptible E. coli 2S-19; type: cell-based, Escherichia coli
E. coli 5W-7 = assay: MIC by doubling dilution, colistin sulfate-susceptible E. coli 5W-7; type: cell-based, Escherichia coli
E. coli 3B-24 = assay: MIC by doubling dilution, colistin sulfate-susceptible E. coli 3B-24; type: cell-based, Escherichia coli
weanling piglets [1] = assay: Synergy of derivatives and colistin sulfate in the feed for weanling piglets; type: in vivo, Duroc×Landrace×Large crossbred lean weanling piglets; details: creep feed with 20 ppm colistin sulfate and 150 ppm derivative (hydrochloride), ten days
Procedure: 90 28-day-aged Duroc×Landrace×Large crossbred lean weanling piglets similar in weight were divided into 9 groups, 10 piglets in each group. For each group, colistin sulfate and/or various substituted benzylideneguanidine derivatives were added into the antibiotic-free creep feed. The piglets were given ad libitum access to feed and water during the experiment. Weight gain, feed efficiency and diarrhea rate of each group within ten days were recorded.

weanling piglets [2] = assay: Synergy of compound 3 and colistin sulfate in the feed for weanling piglets; type: in vivo, Duroc×Landrace×Large crossbred lean weanling piglets; details: for Average daily weight gain / Diarrhea rate / Feed conversion ratio: weanling piglets, ten days
Procedure: 120 28-day-aged Duroc×Landrace×Large crossbred lean weanling piglets similar in weight were divided into 12 groups, 10 piglets in each group. For each group, colistin sulfate and/or compound 3 were added into the antibiotic-free creep feed. The piglets were given ad libitum access to feed and water during the experiment. Weight gain, feed efficiency and diarrhea rate of each group within ten days were recorded.

weanling piglets [3] = assay: Compound 3 in various dosages and colistin sulfate in the feed for weanling piglets; type: in vivo, Duroc×Landrace×Large crossbred lean weanling piglets; details: for Average daily weight gain / Diarrhea rate / Feed conversion ratio: ten days
Procedure: 90 28-day-aged Duroc×Landrace×Large crossbred lean weanling piglets similar in weight were divided into 9 groups, 10 piglets in each group. For each group, colistin sulfate and/or various dosages of compound 3 were added into the antibiotic-free creep feed. The piglets were given ad libitum access to feed and water during the experiment. Weight gain, feed efficiency and diarrhea rate of each group within ten days were recorded.

cherry valley ducks = assay: Combined application of compound 3 and colistin sulfate in duck feed; type: in vivo; details: 21-day experiment
Procedure: 800 1-day-aged cherry valley ducks were divided into 4 groups according to Table 10, 4 parallels in each group and 50 ducks in each parallel. For each group, colistin sulfate and/or compound 3 were added into the feed. The ducks were kept in cages and given ad libitum access to feed and water during a 21-day experiment. Synergy of compound 3 and colistin sulfate on the ducks in the weight gain and feed efficiency was observed from the result (see Table 11).

[4] = tested on: various colistin sulfate-resistant Gram-negative bacteria; assay: MIC by doubling dilution, summary over resistant species; details: compound 3 alone (hydrochloride)
Procedure: (§1) The compound 3 in this embodiment was in the form of a hydrochloride, i.e., the experiments were carried out with a hydrochloride of compound 3.
(§2) In vitro minimum inhibitory concentrations of colistin sulfate against the strains where the cultures respectively comprised various concentrations of compound 3 were also measured.

E. coli 2G-7 = assay: MIC by doubling dilution, colistin sulfate-resistant E. coli 2G-7
Procedure: (§3) In vitro minimum inhibitory concentrations of colistin sulfate against the strains where the cultures respectively comprised 20.0 ppm of the substituted benzylideneguanidine derivatives were also measured.

E. coli 5F-1 [5] = assay: MIC by doubling dilution, colistin sulfate-resistant E. coli 5F-1
Procedure: as §3

E. coli 4D-6 = assay: MIC by doubling dilution, colistin sulfate-resistant E. coli 4D-6
Procedure: as §3

E. coli 5F-1 [6] = assay: MIC, resistance reversal by various concentrations of compound 3, E. coli 5F-1
Procedure: as §1, §2

Shigella sp. 2D89 = assay: MIC, resistance reversal by various concentrations of compound 3, Shigella sp. 2D89
Procedure: as §1, §2

P. aeruginosa E543 = assay: MIC, resistance reversal by various concentrations of compound 3, P. aeruginosa E543
Procedure: as §1, §2

Klebsiella sp. 4125 = assay: MIC, resistance reversal by various concentrations of compound 3, Klebsiella sp. 4125
Procedure: as §1, §2

[7] = 20 ppm colistin sulfate and 150 ppm compound 3 in creep feed (Test, groups 10-12)
[8] = 150 ppm in creep feed, no colistin sulfate (Control 2, groups 7-9)
[9] = 20 ppm colistin sulfate + 10 ppm compound 3 in creep feed (Test 1)
[10] = 20 ppm colistin sulfate + 25 ppm compound 3 in creep feed (Test 2)
[11] = 20 ppm colistin sulfate + 50 ppm compound 3 in creep feed (Test 3)
[12] = 20 ppm colistin sulfate + 100 ppm compound 3 in creep feed (Test 4)
[13] = 20 ppm colistin sulfate + 200 ppm compound 3 in creep feed (Test 5)
[14] = 20 ppm colistin sulfate + 500 ppm compound 3 in creep feed (Test 6)
[15] = only 200 ppm compound 3 in creep feed, no colistin sulfate
[16] = 20 ppm colistin sulfate and 50 ppm compound 3 in feed (Test)
[17] = colistin sulfate with 0 ppm compound 3, or compound 3 (hydrochloride) in the absence of colistin sulfate

CC(C)Oc1ccc(C=NN=C(N)NN=Cc2ccc(OC(C)C)cc2)cc1 [Compound 3]
In vitro minimum inhibitory concentration (MIC) of the substance alone (E. coli 2S-19; E. coli 2S-19, colistin sulfate-susceptible, substance alone, derivatives as hydrochlorides): >800 ppm | In vitro MIC of colistin sulfate in the presence of the substituted benzylideneguanidine derivative (E. coli 2S-19; E. coli 2S-19, culture comprised 20.0 ppm of the derivative (hydrochloride), colistin sulfate serially diluted): 0.50 ppm | In vitro minimum inhibitory concentration (MIC) of the substance alone (E. coli 5W-7; E. coli 5W-7, colistin sulfate-susceptible, substance alone, derivatives as hydrochlorides): >800 ppm | In vitro MIC of colistin sulfate in the presence of the substituted benzylideneguanidine derivative (E. coli 5W-7; E. coli 5W-7, culture comprised 20.0 ppm of the derivative (hydrochloride), colistin sulfate serially diluted): 0.25 ppm | In vitro minimum inhibitory concentration (MIC) of the substance alone (E. coli 3B-24; E. coli 3B-24, colistin sulfate-susceptible, substance alone, derivatives as hydrochlorides): >800 ppm | In vitro MIC of colistin sulfate in the presence of the substituted benzylideneguanidine derivative (E. coli 3B-24; E. coli 3B-24, culture comprised 20.0 ppm of the derivative (hydrochloride), colistin sulfate serially diluted): 0.50 ppm | Average daily weight gain (weanling piglets [1]): 258 g | Diarrhea rate (weanling piglets [1]): 8% | Feed conversion ratio (weanling piglets [1]): 1.441 | Reduction of the diarrhea rate (weanling piglets [2]; groups 10, 11 and 12: colistin sulfate added together with compound 3): 20% | Average daily weight gain (weanling piglets [2]; [7]): 254 g and 248 g and 251 g | Diarrhea rate (weanling piglets [2]; [7]): 12% and 9% and 10% | Feed conversion ratio (weanling piglets [2]; [7]): 1.435 and 1.427 and 1.453 | Average daily weight gain (weanling piglets [2]; [8]): 200 g and 205 g and 211 g | Diarrhea rate (weanling piglets [2]; [8]): 36% and 38% and 34% | Feed conversion ratio (weanling piglets [2]; [8]): 1.666 and 1.639 and 1.647 | Average daily weight gain (weanling piglets [3]; [9]): 215 g | Diarrhea rate (weanling piglets [3]; [9]): 30% | Feed conversion ratio (weanling piglets [3]; [9]): 1.632 | Average daily weight gain (weanling piglets [3]; [10]): 226 g | Diarrhea rate (weanling piglets [3]; [10]): 26% | Feed conversion ratio (weanling piglets [3]; [10]): 1.578 | Average daily weight gain (weanling piglets [3]; [11]): 237 g | Diarrhea rate (weanling piglets [3]; [11]): 20% | Feed conversion ratio (weanling piglets [3]; [11]): 1.532 | Average daily weight gain (weanling piglets [3]; [12]): 248 g | Diarrhea rate (weanling piglets [3]; [12]): 16% | Feed conversion ratio (weanling piglets [3]; [12]): 1.499 | Average daily weight gain (weanling piglets [3]; [13]): 255 g | Diarrhea rate (weanling piglets [3]; [13]): 6% | Feed conversion ratio (weanling piglets [3]; [13]): 1.417 | Average daily weight gain (weanling piglets [3]; [14]): 259 g | Diarrhea rate (weanling piglets [3]; [14]): 3% | Feed conversion ratio (weanling piglets [3]; [14]): 1.428 | Dosage dependence of diarrhea rate and productivity (weanling piglets [3]; colistin sulfate added together with compound 3, weanling piglets): a higher dosage of compound 3 led to a better effect | Average daily weight gain (weanling piglets [3]; [15]): 228 g | Diarrhea rate (weanling piglets [3]; [15]): 29% | Feed conversion ratio (weanling piglets [3]; [15]): 1.596 | Average daily weight gain (cherry valley ducks; [16]): 55.6 g | Feed conversion ratio (cherry valley ducks; [16]): 1.817 | Survival rate (cherry valley ducks; [16]): 100% | Synergy with colistin sulfate in weight gain and feed efficiency (cherry valley ducks): Synergy | Average daily weight gain (cherry valley ducks; 100 ppm compound 3 in feed): 50.5 g | Feed conversion ratio (cherry valley ducks; 100 ppm compound 3 in feed): 1.926 | Survival rate (cherry valley ducks; 100 ppm compound 3 in feed): 100% | Inhibitory activity on the tested strains [4]: did not exhibit inhibitory activity | In vitro minimum inhibitory concentration (MIC) of the substance alone (E. coli 2G-7; E. coli 2G-7, colistin sulfate-resistant, substance alone, derivatives as hydrochlorides): >800 ppm | In vitro MIC of colistin sulfate in the presence of the substituted benzylideneguanidine derivative (E. coli 2G-7; E. coli 2G-7, resistant, culture comprised 20.0 ppm of the derivative (hydrochloride)): 1.0 ppm | In vitro minimum inhibitory concentration (MIC) of the substance alone (E. coli 5F-1 [5]; E. coli 5F-1, colistin sulfate-resistant, substance alone, derivatives as hydrochlorides): >800 ppm | In vitro MIC of colistin sulfate in the presence of the substituted benzylideneguanidine derivative (E. coli 5F-1 [5]; E. coli 5F-1, resistant, culture comprised 20.0 ppm of the derivative (hydrochloride)): 1.0 ppm | In vitro minimum inhibitory concentration (MIC) of the substance alone (E. coli 4D-6; E. coli 4D-6, colistin sulfate-resistant, substance alone, derivatives as hydrochlorides): >800 ppm | In vitro MIC of colistin sulfate in the presence of the substituted benzylideneguanidine derivative (E. coli 4D-6; E. coli 4D-6, resistant, culture comprised 20.0 ppm of the derivative (hydrochloride)): 2.0 ppm | In vitro MIC of colistin sulfate in the presence of compound 3 (E. coli 5F-1 [6]; 5 ppm compound 3): 32.00 ppm | In vitro MIC of colistin sulfate in the presence of compound 3 (E. coli 5F-1 [6]; 10 ppm compound 3): 8.00 ppm | In vitro MIC of colistin sulfate in the presence of compound 3 (E. coli 5F-1 [6]; 20 ppm compound 3): 1.00 ppm | In vitro MIC of colistin sulfate in the presence of compound 3 (E. coli 5F-1 [6]; 40 ppm compound 3): 1.00 ppm | In vitro MIC of colistin sulfate in the presence of compound 3 (E. coli 5F-1 [6]; 80 ppm compound 3): 0.50 ppm | In vitro MIC of the substance alone (E. coli 5F-1 [6]; [17]): >800 ppm | In vitro MIC of colistin sulfate in the presence of compound 3 (Shigella sp. 2D89; 5 ppm compound 3): 16.00 ppm | In vitro MIC of colistin sulfate in the presence of compound 3 (Shigella sp. 2D89; 10 ppm compound 3): 2.00 ppm | In vitro MIC of colistin sulfate in the presence of compound 3 (Shigella sp. 2D89; 20 ppm compound 3): 1.00 ppm | In vitro MIC of colistin sulfate in the presence of compound 3 (Shigella sp. 2D89; 40 ppm compound 3): 0.25 ppm | In vitro MIC of colistin sulfate in the presence of compound 3 (Shigella sp. 2D89; 80 ppm compound 3): 0.25 ppm | In vitro MIC of the substance alone (Shigella sp. 2D89; [17]): >800 ppm | In vitro MIC of colistin sulfate in the presence of compound 3 (P. aeruginosa E543; 5 ppm compound 3): 32.00 ppm | In vitro MIC of colistin sulfate in the presence of compound 3 (P. aeruginosa E543; 10 ppm compound 3): 8.00 ppm | In vitro MIC of colistin sulfate in the presence of compound 3 (P. aeruginosa E543; 20 ppm compound 3): 2.00 ppm | In vitro MIC of colistin sulfate in the presence of compound 3 (P. aeruginosa E543; 40 ppm compound 3): 0.50 ppm | In vitro MIC of colistin sulfate in the presence of compound 3 (P. aeruginosa E543; 80 ppm compound 3): 0.50 ppm | In vitro MIC of the substance alone (P. aeruginosa E543; [17]): >800 ppm | In vitro MIC of colistin sulfate in the presence of compound 3 (Klebsiella sp. 4125; 5 ppm compound 3): 32.00 ppm | In vitro MIC of colistin sulfate in the presence of compound 3 (Klebsiella sp. 4125; 10 ppm compound 3): 8.00 ppm | In vitro MIC of colistin sulfate in the presence of compound 3 (Klebsiella sp. 4125; 20 ppm compound 3): 2.00 ppm | In vitro MIC of colistin sulfate in the presence of compound 3 (Klebsiella sp. 4125; 40 ppm compound 3): 1.00 ppm | In vitro MIC of colistin sulfate in the presence of compound 3 (Klebsiella sp. 4125; 80 ppm compound 3): 1.00 ppm | In vitro MIC of the substance alone (Klebsiella sp. 4125; [17]): >800 ppm
